Laboratory results taken from ChEMBL document CHEMBL4665643 (Bioorg Med Chem Lett, 2019).

Assays:
[1] = target: Proto-oncogene tyrosine-protein kinase Src (Homo sapiens) (UniProt P12931); experiment: Inhibition of recombinant human C-terminal His-tagged full length SRC expressed in baculovirus expression system using Tyr 02 as substrate at 0.1 uM incubated for 60 mins by Z'-Lyte assay relative to control
[2] = target: Death-associated protein kinase 1 (Homo sapiens) (UniProt P53355); experiment: Inhibition of recombinant human N-terminal GST-tagged DAPK1 (1 to 363 residues) expressed in baculovirus expression system using ZIPtide as substrate at 0.1 uM incubated for 60 mins by Adapta assay relative to control
Death-associated protein kinase 1 (Homo sapiens), sequence (P53355 whole entry, looked up, the tested form may be a part): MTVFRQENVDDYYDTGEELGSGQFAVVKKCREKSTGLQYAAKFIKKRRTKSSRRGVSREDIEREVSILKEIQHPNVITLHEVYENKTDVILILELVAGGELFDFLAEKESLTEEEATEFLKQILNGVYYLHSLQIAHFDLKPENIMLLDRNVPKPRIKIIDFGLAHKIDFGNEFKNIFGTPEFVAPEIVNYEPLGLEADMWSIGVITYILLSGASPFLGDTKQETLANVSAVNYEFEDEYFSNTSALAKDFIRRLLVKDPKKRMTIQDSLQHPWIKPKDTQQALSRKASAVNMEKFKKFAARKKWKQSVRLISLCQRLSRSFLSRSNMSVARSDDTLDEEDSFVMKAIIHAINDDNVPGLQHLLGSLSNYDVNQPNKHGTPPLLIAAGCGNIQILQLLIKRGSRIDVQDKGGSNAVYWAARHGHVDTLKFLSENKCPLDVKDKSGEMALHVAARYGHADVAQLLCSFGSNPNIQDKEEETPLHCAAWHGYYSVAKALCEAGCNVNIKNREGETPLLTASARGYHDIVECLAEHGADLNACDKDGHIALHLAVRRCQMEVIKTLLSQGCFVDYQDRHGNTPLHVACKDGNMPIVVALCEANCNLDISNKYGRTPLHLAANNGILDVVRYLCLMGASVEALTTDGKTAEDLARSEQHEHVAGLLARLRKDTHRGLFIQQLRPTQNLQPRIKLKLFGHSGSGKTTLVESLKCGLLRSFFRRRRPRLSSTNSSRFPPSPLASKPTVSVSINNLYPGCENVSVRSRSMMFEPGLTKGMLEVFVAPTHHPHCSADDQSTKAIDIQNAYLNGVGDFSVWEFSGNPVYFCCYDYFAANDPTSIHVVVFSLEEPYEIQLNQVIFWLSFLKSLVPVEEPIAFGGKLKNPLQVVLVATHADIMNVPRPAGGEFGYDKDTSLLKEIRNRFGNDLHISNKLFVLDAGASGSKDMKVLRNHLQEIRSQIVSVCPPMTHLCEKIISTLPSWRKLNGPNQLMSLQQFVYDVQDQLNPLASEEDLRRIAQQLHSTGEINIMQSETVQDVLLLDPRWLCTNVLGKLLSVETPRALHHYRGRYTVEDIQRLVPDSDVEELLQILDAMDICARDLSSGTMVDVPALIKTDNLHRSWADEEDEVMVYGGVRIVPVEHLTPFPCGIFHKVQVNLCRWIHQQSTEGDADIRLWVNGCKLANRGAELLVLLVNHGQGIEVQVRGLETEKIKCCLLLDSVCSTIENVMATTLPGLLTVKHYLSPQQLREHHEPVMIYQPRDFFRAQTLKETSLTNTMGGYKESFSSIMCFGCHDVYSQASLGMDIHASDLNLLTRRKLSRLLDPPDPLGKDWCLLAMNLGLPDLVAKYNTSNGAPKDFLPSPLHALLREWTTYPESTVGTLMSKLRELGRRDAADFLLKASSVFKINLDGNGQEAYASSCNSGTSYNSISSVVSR

[3] = target: Serine/threonine-protein kinase pim-2 (Homo sapiens) (UniProt Q9P1W9); experiment: Inhibition of recombinant human GST-tagged full length PIM2 expressed in baculovirus expression system using Ser/Thr 07 as substrate at 0.1 uM incubated for 60 mins by Z'-lyte assay relative to control
Serine/threonine-protein kinase pim-2 (Homo sapiens), sequence (Q9P1W9 whole entry, looked up): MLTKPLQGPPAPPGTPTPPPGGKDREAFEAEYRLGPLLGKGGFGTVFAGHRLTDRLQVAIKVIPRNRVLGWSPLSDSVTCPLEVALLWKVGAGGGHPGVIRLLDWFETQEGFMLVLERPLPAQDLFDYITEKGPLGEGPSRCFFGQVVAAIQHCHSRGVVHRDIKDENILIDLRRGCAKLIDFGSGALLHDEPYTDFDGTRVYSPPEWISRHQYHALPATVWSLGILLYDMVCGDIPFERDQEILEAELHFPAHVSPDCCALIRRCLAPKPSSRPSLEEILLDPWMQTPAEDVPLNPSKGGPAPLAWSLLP

[4] = target: Mitogen-activated protein kinase 9 (Homo sapiens) (UniProt P45984); experiment: Inhibition of recombinant human His-tagged full length JNK2 expressed in baculovirus expression system using Ser/Thr 04 as substrate at 0.1 uM incubated for 60 mins by Z'-lyte assay relative to control
[5] = target: Insulin-like growth factor 1 receptor (Homo sapiens) (UniProt P08069); experiment: Inhibition of recombinant human His-tagged IGF1R (960 to 1397 residues) expressed in baculovirus expression system using Tyr 01 as substrate at 0.1 uM incubated for 60 mins by Z'-Lyte assay relative to control
Insulin-like growth factor 1 receptor (Homo sapiens), sequence (P08069 31-736 limits assumed): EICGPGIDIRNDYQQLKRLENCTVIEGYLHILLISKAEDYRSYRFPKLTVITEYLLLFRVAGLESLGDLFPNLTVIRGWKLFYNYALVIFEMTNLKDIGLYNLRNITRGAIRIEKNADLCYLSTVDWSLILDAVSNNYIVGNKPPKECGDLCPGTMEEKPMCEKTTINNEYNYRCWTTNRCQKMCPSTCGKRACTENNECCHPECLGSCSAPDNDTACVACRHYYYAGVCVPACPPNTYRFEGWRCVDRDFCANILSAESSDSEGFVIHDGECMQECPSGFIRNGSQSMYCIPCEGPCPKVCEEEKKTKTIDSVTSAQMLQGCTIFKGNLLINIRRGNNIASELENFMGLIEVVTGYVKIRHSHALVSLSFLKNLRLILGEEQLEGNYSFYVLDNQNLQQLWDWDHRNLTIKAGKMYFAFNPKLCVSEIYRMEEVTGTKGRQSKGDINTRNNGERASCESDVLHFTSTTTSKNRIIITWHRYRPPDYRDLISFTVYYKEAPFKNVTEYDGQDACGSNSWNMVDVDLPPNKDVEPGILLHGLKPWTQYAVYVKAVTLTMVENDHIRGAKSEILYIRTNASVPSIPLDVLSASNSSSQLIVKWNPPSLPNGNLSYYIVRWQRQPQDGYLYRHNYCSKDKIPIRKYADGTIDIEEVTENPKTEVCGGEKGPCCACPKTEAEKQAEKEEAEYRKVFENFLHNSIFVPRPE
Insulin-like growth factor 1 receptor (Homo sapiens), sequence (P08069 741-1367 limits assumed): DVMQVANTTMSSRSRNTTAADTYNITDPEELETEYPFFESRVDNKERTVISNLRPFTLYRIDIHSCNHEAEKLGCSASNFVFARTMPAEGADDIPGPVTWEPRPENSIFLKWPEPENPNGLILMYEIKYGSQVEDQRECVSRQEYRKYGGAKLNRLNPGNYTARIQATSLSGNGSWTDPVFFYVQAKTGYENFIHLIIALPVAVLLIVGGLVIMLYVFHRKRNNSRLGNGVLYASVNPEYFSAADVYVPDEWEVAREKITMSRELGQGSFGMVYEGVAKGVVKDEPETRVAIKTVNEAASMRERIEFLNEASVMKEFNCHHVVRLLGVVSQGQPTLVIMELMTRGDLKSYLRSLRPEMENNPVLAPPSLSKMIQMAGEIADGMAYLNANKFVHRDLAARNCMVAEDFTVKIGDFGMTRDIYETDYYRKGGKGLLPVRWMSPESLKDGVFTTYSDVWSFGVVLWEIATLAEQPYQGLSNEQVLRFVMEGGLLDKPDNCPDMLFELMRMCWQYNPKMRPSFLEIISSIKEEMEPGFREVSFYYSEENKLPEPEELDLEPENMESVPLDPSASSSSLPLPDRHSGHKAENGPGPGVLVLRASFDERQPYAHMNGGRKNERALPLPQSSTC

[6] = target: T1, Inhibitor of nuclear factor kappa-B kinase subunit epsilon (Homo sapiens) (UniProt Q14164); experiment: Inhibition of recombinant human GST-tagged full length IKKepsilon expressed in baculovirus expression system using Ser/Thr 11 as substrate at 0.1 uM incubated for 60 mins by Z'-lyte assay relative to control
T1 sequence (whole entry): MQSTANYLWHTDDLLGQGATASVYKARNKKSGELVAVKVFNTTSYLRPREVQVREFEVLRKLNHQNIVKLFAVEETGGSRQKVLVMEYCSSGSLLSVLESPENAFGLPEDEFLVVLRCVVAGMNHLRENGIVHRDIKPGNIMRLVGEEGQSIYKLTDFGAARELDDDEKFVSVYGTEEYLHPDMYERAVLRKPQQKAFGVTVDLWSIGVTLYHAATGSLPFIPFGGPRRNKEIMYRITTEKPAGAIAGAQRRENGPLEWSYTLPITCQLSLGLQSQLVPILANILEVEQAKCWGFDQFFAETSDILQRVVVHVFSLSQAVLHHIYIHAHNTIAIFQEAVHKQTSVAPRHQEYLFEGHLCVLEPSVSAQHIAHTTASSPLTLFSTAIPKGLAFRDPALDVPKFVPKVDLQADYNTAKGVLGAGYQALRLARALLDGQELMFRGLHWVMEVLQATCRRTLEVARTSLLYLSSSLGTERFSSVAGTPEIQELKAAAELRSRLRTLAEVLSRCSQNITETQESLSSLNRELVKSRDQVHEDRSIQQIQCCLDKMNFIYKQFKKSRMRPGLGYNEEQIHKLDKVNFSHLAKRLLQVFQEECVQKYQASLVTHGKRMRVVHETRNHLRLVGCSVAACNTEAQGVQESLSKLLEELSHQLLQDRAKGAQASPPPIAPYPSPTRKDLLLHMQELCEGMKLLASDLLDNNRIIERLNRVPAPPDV

[7] = target: T2, Phosphatidylinositol 4,5-bisphosphate 3-kinase catalytic subunit delta isoform (Homo sapiens) (UniProt O00329); experiment: Inhibition of recombinant human His-tagged full length PI3Kdelta expressed in baculovirus expression system using PIP:PS as substrate at 0.1 uM incubated for 60 mins by Adapta assay relative to control
T2 sequence (whole entry): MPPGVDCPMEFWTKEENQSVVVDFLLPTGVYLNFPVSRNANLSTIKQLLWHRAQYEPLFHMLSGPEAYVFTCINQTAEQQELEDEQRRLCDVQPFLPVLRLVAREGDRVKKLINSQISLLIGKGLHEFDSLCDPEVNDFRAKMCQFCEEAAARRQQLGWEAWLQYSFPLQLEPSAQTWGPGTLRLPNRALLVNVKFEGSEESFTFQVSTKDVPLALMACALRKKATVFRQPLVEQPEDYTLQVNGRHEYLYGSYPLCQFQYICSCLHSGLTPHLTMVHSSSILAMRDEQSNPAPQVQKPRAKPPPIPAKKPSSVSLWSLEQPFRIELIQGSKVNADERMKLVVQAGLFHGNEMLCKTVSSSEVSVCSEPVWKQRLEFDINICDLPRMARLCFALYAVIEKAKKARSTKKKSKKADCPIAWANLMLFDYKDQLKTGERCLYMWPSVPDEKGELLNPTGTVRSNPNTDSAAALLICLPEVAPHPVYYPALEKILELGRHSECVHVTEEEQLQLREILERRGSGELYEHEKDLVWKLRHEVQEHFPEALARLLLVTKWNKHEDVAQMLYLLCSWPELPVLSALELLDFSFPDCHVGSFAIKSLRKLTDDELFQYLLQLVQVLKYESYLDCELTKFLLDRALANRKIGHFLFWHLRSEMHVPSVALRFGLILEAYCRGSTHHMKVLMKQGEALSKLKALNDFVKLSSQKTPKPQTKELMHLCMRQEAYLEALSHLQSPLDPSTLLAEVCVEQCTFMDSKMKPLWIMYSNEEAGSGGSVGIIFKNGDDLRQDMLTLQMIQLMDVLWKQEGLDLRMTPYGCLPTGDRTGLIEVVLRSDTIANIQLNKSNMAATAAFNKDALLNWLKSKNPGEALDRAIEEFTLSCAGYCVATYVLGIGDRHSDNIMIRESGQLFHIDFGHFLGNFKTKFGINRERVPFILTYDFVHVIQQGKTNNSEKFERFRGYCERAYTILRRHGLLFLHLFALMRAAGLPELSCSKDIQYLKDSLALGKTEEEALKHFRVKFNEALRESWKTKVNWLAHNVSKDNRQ

[8] = target: Aurora kinase B (Homo sapiens) (UniProt Q96GD4); experiment: Inhibition of recombinant human His-tagged full length Aurora B expressed in baculovirus expression system using Ser/Thr 01 as substrate at 0.1 uM incubated for 60 mins by Z'-Lyte assay relative to control
Aurora kinase B (Homo sapiens), sequence (Q96GD4 whole entry): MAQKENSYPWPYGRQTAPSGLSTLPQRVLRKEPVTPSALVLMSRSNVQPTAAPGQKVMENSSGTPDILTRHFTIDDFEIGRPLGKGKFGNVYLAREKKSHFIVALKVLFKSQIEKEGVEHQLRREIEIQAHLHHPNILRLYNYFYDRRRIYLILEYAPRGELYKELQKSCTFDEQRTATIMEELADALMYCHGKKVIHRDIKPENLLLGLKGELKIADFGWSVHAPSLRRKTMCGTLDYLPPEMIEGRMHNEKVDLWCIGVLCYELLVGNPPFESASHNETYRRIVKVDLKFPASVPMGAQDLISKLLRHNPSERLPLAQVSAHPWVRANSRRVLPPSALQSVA

[9] = target: Serine/threonine-protein kinase B-raf (Homo sapiens) (UniProt P15056); experiment: Inhibition of recombinant human GST-tagged full length BRAF expressed in baculovirus expression system using Ser/Thr 03 as substrate at 0.1 uM incubated for 60 mins by Z'-Lyte assay relative to control
Serine/threonine-protein kinase B-raf (Homo sapiens), sequence (P15056 whole entry): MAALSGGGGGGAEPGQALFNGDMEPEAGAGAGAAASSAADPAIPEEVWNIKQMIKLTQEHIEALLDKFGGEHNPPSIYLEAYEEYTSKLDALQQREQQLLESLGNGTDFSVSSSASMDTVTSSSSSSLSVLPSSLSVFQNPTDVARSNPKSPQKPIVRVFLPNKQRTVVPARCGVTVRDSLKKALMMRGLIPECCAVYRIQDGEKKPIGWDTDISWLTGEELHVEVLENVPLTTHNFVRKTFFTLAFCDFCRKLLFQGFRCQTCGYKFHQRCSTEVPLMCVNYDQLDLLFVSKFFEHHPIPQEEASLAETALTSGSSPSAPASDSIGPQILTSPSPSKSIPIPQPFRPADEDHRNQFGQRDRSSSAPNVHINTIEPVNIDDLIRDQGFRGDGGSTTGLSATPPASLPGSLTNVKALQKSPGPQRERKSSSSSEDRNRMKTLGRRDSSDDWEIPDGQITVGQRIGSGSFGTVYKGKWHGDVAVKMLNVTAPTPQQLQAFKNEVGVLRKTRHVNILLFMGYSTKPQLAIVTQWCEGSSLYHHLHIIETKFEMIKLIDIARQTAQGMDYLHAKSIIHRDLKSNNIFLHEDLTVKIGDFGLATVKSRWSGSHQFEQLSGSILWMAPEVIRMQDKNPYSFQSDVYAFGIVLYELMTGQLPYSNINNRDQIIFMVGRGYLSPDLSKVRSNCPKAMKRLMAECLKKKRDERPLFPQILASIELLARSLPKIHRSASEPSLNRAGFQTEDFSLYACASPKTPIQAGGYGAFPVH

Proto-oncogene tyrosine-protein kinase Src (Homo sapiens), sequence (P12931 2-536 limits assumed): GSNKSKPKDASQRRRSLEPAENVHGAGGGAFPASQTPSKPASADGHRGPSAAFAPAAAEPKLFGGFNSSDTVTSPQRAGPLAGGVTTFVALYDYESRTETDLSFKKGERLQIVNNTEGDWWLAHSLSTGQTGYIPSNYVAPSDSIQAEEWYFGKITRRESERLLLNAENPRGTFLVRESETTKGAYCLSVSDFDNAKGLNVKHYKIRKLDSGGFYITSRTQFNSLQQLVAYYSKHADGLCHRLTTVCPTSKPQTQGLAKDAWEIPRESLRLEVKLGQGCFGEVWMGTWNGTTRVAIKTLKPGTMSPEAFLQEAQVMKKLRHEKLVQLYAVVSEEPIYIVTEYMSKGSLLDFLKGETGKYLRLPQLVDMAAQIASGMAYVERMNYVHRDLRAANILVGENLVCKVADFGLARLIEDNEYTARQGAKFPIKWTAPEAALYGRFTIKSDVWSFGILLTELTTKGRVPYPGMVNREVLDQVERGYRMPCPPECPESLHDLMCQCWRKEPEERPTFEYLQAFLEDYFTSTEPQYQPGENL

SMILES	inhibition [1] [%]	inhibition [2] [%]	inhibition [3] [%]	inhibition [4] [%]	inhibition [5] [%]	inhibition [6] [%]	inhibition [7] [%]	inhibition [8] [%]	inhibition [9] [%]
Cn1cc(NC(=O)c2cnn3cccnc23)c(-c2cc(Cl)ccc2OC(F)F)n1	28	11	2	-2	8	5	6	1	5
O=C(Nc1c[nH]nc1-c1cc2ccccc2cc1OC(F)F)c1cnn2cccnc12	35	22	-1	0	5	3	6	5	4
O=C(Nc1c[nH]nc1-c1cc(Cl)ccc1OC(F)F)c1cnn2cccnc12	38	19	18	16	9	8	7	3	1
